Results as given in paper PMC11152041, “Tricarbonyl rhenium(I) complexes with 8-hydroxyquinolines: structural, chemical, antibacterial, and anticancer characteristics” (RSC Advances, 2024).
Like-named read-outs stand apart in the source and are kept apart here.

Key:
SKOV-3 cells = experiment: MTT cytotoxicity assay; format: cell-based, human; details: for IC50: MTT, read-out: IC50 ± SD
Protocol: (§1) The cytotoxicities for studied compounds were evaluated against leukemia cells (HL-60), as well as ovarian (SKOV-3), prostate (PC-3), and breast (MCF-7) cancer cell lines. The potential selectivity of these compounds towards cancer cells was assessed by determination of their cytotoxicities towards breast non-cancerous cells (MCF-10A). For comparison, cisplatin was added to the cytotoxicity assays.
(§2) Bacterial strains and cell lines were obtained from the American Type Culture Collection (ATCC).[59] […] Antimicrobial activity was tested in Müeller Hinton (MH) II broth (Becton Dickinson). For anticancer activity assay, the following reagents from Merk were used: 3-(4,5-dimethylthiazol-2-yl)-2,5-diphenyltetrazolium bromide (MTT), sodium dodecyl sulfate (SDS) and HCl. The solubilized formazan product was spectrophotometrically quantified in a Power Wave XS (Bio Tek, Winooski, VT, USA) microplate reader. The HL-60 and PC-3 cells were grown in RPMI-1640 medium with stable glutamine (Biowest) supplemented with 10% (v/v) of heat-inactivated fetal bovine serum (FBS, Biowest) and 1% (v/v) of antibiotic–antimycotic solution (Biowest). The SKOV-3 cells were grown in McCoy's 5A medium with L-glutamine (Biowest) supplemented with 10% (v/v) heat-inactivated FBS, and 1% (v/v) antibiotic–antimycotic solution. The MCF-7 cells were grown in Eagle's MEM (Minimal Essential Medium) medium with stable glutamine (Biowest), supplemented with 10% (v/v) heat-inactivated FBS 1% (v/v) MEM non-essential amino acids (Biowest), 1% (v/v) antibiotic–antimycotic solution, and 1 mM sodium pyruvate (Merck). The MCF-10A cells were grown in Ham's F-12K (Kaighn's) Medium with stable glutamine (Gibco) supplemented with 5% (v/v) heat-inactivated FBS, 1% (v/v) MEM non-essential amino acids, 1% (v/v) antibiotic–antimycotic solution, 5 μg mL^−1 insulin, 0.04 μg mL^−1 hydrocortisone (Merck), and 15 ng mL^−1 human Epidermal Growth Factor (hEGF, PeproTech).
(§3) The cells were cultured in 96-well plates and incubated with the tested compound for 24 h and 48 h. All experiments were performed in exponentially growing cultures. The 0.03 M solutions of the compounds in DMSO were appropriately diluted using culture media. The maximal final concentration of DMSO in each well was 0.1%. The cytotoxicity of the compounds was measured by determining cell viability with a colorimetric test based on 3-(4,5-dimethylthiazol-2-yl)-2,5-diphenyltetrazolium bromide (MTT). MTT stock solution was added to each well to a final concentration of 0.5 mg mL^−1 and incubated for 4 h at 37 °C; following formazan crystals were dissolved by the addition of sodium dodecyl sulfate (SDS) solution (10% SDS in 0.001 M HCl). MTT and SDS were added directly to the cell culture. The compound's IC50 values (concentration required to reduce the viability of cells by 50% compared with the control cells) were calculated from the data obtained with the MTT assay.

PC-3 cells = experiment: MTT cytotoxicity assay; format: cell-based, human; details: MTT, read-out: IC50 ± SD
Protocol: as §1, §2, §3

HL-60 cells = experiment: MTT cytotoxicity assay; format: cell-based, human; details: MTT, read-out: IC50 ± SD
Protocol: as §1, §2, §3

MCF-10A cells = experiment: MTT cytotoxicity assay; details: for IC50: read-out: IC50 ± SD, MCF-10A (non-cancerous), MTT, * precipitation of the complex
Protocol: as §1, §2, §3

P. aeruginosa ATCC27853 = experiment: Broth microdilution MIC/MBC (ISO 20776-1); format: cell-based, Pseudomonas aeruginosa; details: for MBC: P. aeruginosa ATCC27853, >99.99% reduction of growth; for MIC: P. aeruginosa ATCC27853, MH II broth, 35 °C, 24 h
Protocol: as §2
(§4) The in vitro antibacterial activity was determined according to ISO 20776-1.[88] Among the tested microorganisms were Gram-negative rods, E. coli ATCC25922 and P. aeruginosa ATCC27853, and Gram-positive cocci, S. aureus ATCC29213 and E. faecalis ATCC29212. The selected bacterial species represented the most common etiologic agents of human infections and are used for quality control of antimicrobial susceptibility testing.[89] The test procedure included the determination of MICs and MBCs of complexes and their free ligands. MIC and MBC determinations of ciprofloxacin, as the reference antibiotic, were also performed. All compounds were dissolved in DMSO to reach the maximum 512 mg L^−1 concentration. […] The assay consisted of preparing 2-fold dilutions of the substances in a liquid growth medium MH II and inoculating them with a standardized suspension of microorganisms at a McFarland density of 0.5 (≈10^8 CFU mL^−1). The culture plates were incubated at 35 °C for 24 h. The lowest concentration of the compound inhibiting visible bacterial growth was specified as MIC, and the concentration that reduced bacterial growth by >99.99% after counting live bacteria on the plates compared to the positive control was defined as MBC.

E. coli ATCC25922 = experiment: Broth microdilution MIC/MBC (ISO 20776-1); format: cell-based, Escherichia coli; details: for MBC: E. coli ATCC25922, >99.99% reduction of growth; for MIC: E. coli ATCC25922, MH II broth, 35 °C, 24 h
Protocol: as §2, §4

S. aureus ATCC29213 = experiment: Broth microdilution MIC/MBC (ISO 20776-1); format: cell-based, Staphylococcus aureus; details: for MBC: S. aureus ATCC29213, >99.99% reduction of growth; for MIC: S. aureus ATCC29213, MH II broth, 35 °C, 24 h
Protocol: as §2, §4

MCF-7 cells = experiment: MTT cytotoxicity assay; format: cell-based, human; details: MTT, read-out: IC50 ± SD
Protocol: as §1, §2, §3

E. faecalis ATCC29212 = experiment: Broth microdilution MIC/MBC (ISO 20776-1); format: cell-based, Enterococcus faecalis; details: for MBC: E. faecalis ATCC29212, >99.99% reduction of growth; for MIC: E. faecalis ATCC29212, MH II broth, 35 °C, 24 h
Protocol: as §2, §4

Structure (SMILES) | IC50 (SKOV-3 cells; SKOV-3, 24 h) [µM] | IC50 (SKOV-3 cells; SKOV-3, 48 h) [µM] | activity (SKOV-3 cells; SKOV-3, incubation time not given) | IC50 (PC-3 cells; PC-3, 24 h) [µM] | IC50 (PC-3 cells; PC-3, 48 h) [µM] | IC50 (HL-60 cells; HL-60, 24 h) [µM] | IC50 / activity on normal cells (MCF-10A cells; MCF-10A, incubation time not given) | IC50 (MCF-10A cells; 24 h) [µM] | IC50 (MCF-10A cells; 48 h) [µM] | MBC (P. aeruginosa ATCC27853) | MIC (P. aeruginosa ATCC27853) | MBC (E. coli ATCC25922) | MIC (E. coli ATCC25922) | MBC (S. aureus ATCC29213) [µg/mL] | MIC (S. aureus ATCC29213) [µg/mL] | IC50 (HL-60 cells; HL-60, 48 h) [µM] | IC50 (MCF-7 cells; MCF-7, 24 h) [µM] | IC50 (MCF-7 cells; MCF-7, 48 h) [µM] | MBC (E. faecalis ATCC29212) [µg/mL] | MIC (E. faecalis ATCC29212) [µg/mL]
N.N.[Cl][Pt][Cl] [cisplatin, reference compound] | > 100 | > 100 | no action | 58 ± 6 | 20 ± 2 | 46 ± 1 | no action | > 100 | > 100 |  |  |  |  |  |  |  |  |  |  | 
[C-]#[O+].[C-]#[O+].[C-]#[O+].[Re][O]c1cccc2cccnc12.c1c[nH]cn1 [complex 1, [Re(CO)3(Q)Him]] | 36 ± 5 | 39 ± 3 |  | 28 ± 6 | 27 ± 4 | 4.3 ± 0.2 |  | 39 ± 1 | 24 ± 1 | > 512 mg/L | 128 mg/L | 256/256 mg L^−1 | 256/256 mg L^−1 | > 512 | 256 | 4 ± 1 | 34 ± 4 | 30 ± 7 | > 512 | 64
Cc1ncc[nH]1.[C-]#[O+].[C-]#[O+].[C-]#[O+].[Re][O]c1cccc2cccnc12 [complex 2, [Re(CO)3(Q)MeHim]] | > 100 | 44 ± 1 |  | 34 ± 3 | 35 ± 2 | 10 ± 1 |  | 31 ± 4 | 29 ± 5 | >512/>512 mg L^−1 | >512/>512 mg L^−1 | >512/>512 mg L^−1 | >512/>512 mg L^−1 | > 512 | 256 | 9 ± 1 | 36 ± 3 | 30 ± 1 | > 512 | 128
[C-]#[O+].[C-]#[O+].[C-]#[O+].[Re][O]c1cccc2cccnc12.c1ccc(-c2ccn[nH]2)cc1 [complex 4, [Re(CO)3(Q)HPhpz]·0.5CH3CN] | > 100 | 81 ± 9 |  | 42 ± 6 | 27 ± 3 | 9 ± 1 |  | 50 ± 5 | 36 ± 4 | >512/>512 mg L^−1 | >512/>512 mg L^−1 | >512/>512 mg L^−1 | >512/>512 mg L^−1 | > 512 | 256 | 9 ± 1 | 73 ± 3 | 50 ± 3 | > 512 | 32
